Laboratory results: PMC9170688, “Gametocyte-specific and all-blood-stage transmission-blocking chemotypes discovered from high throughput screening on Plasmodium falciparum gametocytes” (Communications Biology, 2022)
Entries after “also recorded” stand apart in the source; their conditions may differ.

What follows are compounds tested on P. falciparum NF54 pfs16-GFP-PyLUC gametocytes (assay: P. falciparum gametocyte luminescence assay (PfLuc), line NF54 pfs16-GFP-PyLUC). Conditions: Plasmodium falciparum, NF54, read-out: Pf Gametocytes NF54 pfs16 (IC50 nM).
Type: cell-based, Plasmodium falciparum
Description: (§1) To exclude false positive compounds that may interfere with the click beetle CBG99 luciferase signal and to confirm the activity on gametocytes produced by other P. falciparum lines, we tested the above 638 compounds at a single concentration of 10 µM on gametocytes from two NF54 strain derived lines: pfs16-GFP-PyLUC (Photinus pyralis luciferase under the same pfs16 promoter)[14],[16],[27] and hsp86-PpyRE13 that was generated for this work to express the mutated Photinus pyralis PpyRE13 luciferase in gametocytes under the promoter of the pfhsp86 gene.
(§2) With the selected 84 compounds, the subsequent step aimed at determining the gametocyte inhibition potency and the parasite stage selectivity between the gametocytes and the asexual stages in the NF54 hsp86-PpyRE13. […] Similar data were obtained considering the gametocyte IC50 values measured in the NF54 pfs16-GFP-PyLUC strain (see Supplementary Data 2).
(§3) Parasite gametocyte luminescence assays were performed in 384-well plates (Thermo, 4332, USA) by infected red blood cells seeded at 40 µL/well at a haematocrit of 0.625% for the strain 3D7elo1-pfs16-CBG99, 1.875% for both strains NF54 hsp86-PpyRE13 and NF54 pfs16-GFP-PyLUC. Assay were performed in the medium: 10.44 g/L RPMI 1640 Medium (Gibco, 51800043), 5.95 g/L HEPES (Sigma, H4034), 50 mg/L Hypoxantine (Sigma, 56700), 10% heat inactivated human serum, 10 ml of Neomycin solution (Sigma, N1142) and 2.1 g/L NaHCO3 (Sigma, 144-55-8). Compounds or DMSO as control were pre dispensed on plates, from 10 mM DMSO stock solutions, via an acoustic droplet ejection device (ATS-100, EDC Biosystems) to achieve the final desired concentration. Assay plates were incubated for 48 h at 37 °C in 4% CO2, 3% O2, and 93% N2 modified atmosphere. After incubation, 20 µL/well of a solution of luciferin (Regis, 1-360242-200) potassium/sodium salt (300 µg/ml) are added to the assay plates and read at suitable luminescence detection after 1 min incubation at room temperature. The whole HTS was performed in 7 rounds of 30–80 plates each in two months’ time.
Work on `OC(c1ccc(Cl)cc1)C1CCN(CCCN2CCC(C(O)c3ccc(Cl)cc3)CC2)CC1` (centres unmarked) [Compound 13] yielded an IC50 of 582 nM. For `Cc1ccc2nc(-c3ccccc3)c(CSc3cccc[n+]3[O-])n2c1` [Compound 16], the IC50 was 167 nM. With `COc1ccccc1Cn1cc2c(-c3ccc(F)cc3)nnc-2c2cc(OC)c(OC)cc21` [Compound 31] the IC50 was 277 nM. Compound `Clc1ccc(Nc2nc(-c3ccccn3)cs2)nc1` [Compound 39] has an IC50 of 308 nM. `COc1cc(CNCC2CCNCC2)ccc1OCc1cccc(Cl)c1` [Compound 53] gave an IC50 of 876 nM. `Cc1ccc(Nc2cc(C)nc(Nc3ccc(NC(=O)c4cc5ccccc5oc4=O)cc3)n2)cc1` [Compound 63] was tested, and the IC50 was 225 nM. Work on `COc1ccc(Nc2cc(C)nc(Nc3ccc(NC(=O)c4cc(C)cc(C)c4)cc3)n2)cc1` [Compound 64] yielded an IC50 of 264 nM. For `COc1ccc(NC(=O)Nc2ccc(Nc3nc(C)cc(Nc4ccc(C)cc4)n3)cc2)cc1` [Compound 65], the IC50 was 480 nM. In the case of `O=C(c1ccc([N+](=O)[O-])o1)N1CCC(Cn2cnc3ccccc32)CC1` [Compound 69], the IC50 was 555 nM.

The compounds below were run on HeLa cells (assay: HeLa cell proliferation assay (CellTiter Glo)). Conditions: Homo sapiens.
Type: cell-based, human
Description: In addition, we tested the 84 compounds in a dose-response fashion on HeLa cells to quantitatively monitor their cytotoxicity potential.
HeLa cells (CCL-2, ATCC, USA) were cultured in DMEM without phenol red (Thermo, 11880, USA) + 10% FBS + 1X PenStrep + 1X Gln. They were plated in a 384-well plate (Thermo, 4334-11, USA) to a density of 2000 cells per well and let recover for 4 h at 37 °C, 5% CO2 in a humidified atmosphere. After the recovery, compounds were transferred to assay plates as per compound preparation method. Assay plates were then incubated at 37 °C, 5% CO2 in a humidified atmosphere for 72 h. Cell viability was measured by the CellTiTer Glo (Promega, G8080, USA) as per manufacturer instruction.
`OC(c1ccc(Cl)cc1)C1CCN(CCCN2CCC(C(O)c3ccc(Cl)cc3)CC2)CC1` (centres unmarked) [Compound 13] gave an IC50 of 4510 nM. Work on `Cc1ccc2nc(-c3ccccc3)c(CSc3cccc[n+]3[O-])n2c1` [Compound 16] yielded an IC50 of 9510 nM. With `COc1ccccc1Cn1cc2c(-c3ccc(F)cc3)nnc-2c2cc(OC)c(OC)cc21` [Compound 31] the IC50 was 5000 nM. `Clc1ccc(Nc2nc(-c3ccccn3)cs2)nc1` [Compound 39] was tested, and the IC50 was 2950 nM. `COc1cc(CNCC2CCNCC2)ccc1OCc1cccc(Cl)c1` [Compound 53] was tested, and the IC50 was 5340 nM. `Cc1ccc(Nc2cc(C)nc(Nc3ccc(NC(=O)c4cc5ccccc5oc4=O)cc3)n2)cc1` [Compound 63] was tested, and the IC50 was 8690 nM. `COc1ccc(Nc2cc(C)nc(Nc3ccc(NC(=O)c4cc(C)cc(C)c4)cc3)n2)cc1` [Compound 64] showed an IC50 of 8100 nM. With `COc1ccc(NC(=O)Nc2ccc(Nc3nc(C)cc(Nc4ccc(C)cc4)n3)cc2)cc1` [Compound 65] the IC50 was 4500 nM. `O=C(c1ccc([N+](=O)[O-])o1)N1CCC(Cn2cnc3ccccc32)CC1` [Compound 69] showed an IC50 of 11300 nM.

What follows are compounds tested on P. falciparum strain NF54-hsp70-luc stage V gametocytes fed to Anopheles stephensi mosquitoes (assay: whole plant or invertebrate). Conditions: 1 µM.
Type: in vivo, Plasmodium falciparum
Description: The above selected 30 compounds were subjected to a phenotypic male gamete exflagellation assay. This assay measures the viability of male gametocytes by quantitating the final step of maturation into motile microgametes in vitro[24]. This process naturally occurs in the mosquito gut within minutes from the blood meal. The acquisition of time lapse videos of gamete motility in bright field microscopy and the subsequent analysis to count exflagellation centres were performed in an automated HTS format in 384-well plates. The compounds were tested in two independent biological replicates at the concentration of 1 µM. […] The standard membrane feeding assay (SMFA) is used to measure the parasite transmission through mosquito. In this assay, mature stage V gametocytes of the P. falciparum strain NF54-hsp70-luc were treated with 1 and 10 µM of the nine selected compounds for 24 h, added with human red blood cells and serum to achieve a haematocrit of 50% and then fed to mosquitoes. Luminescence was analyzed in the mosquito salivary glands 8 days post-feeding.
SMFA was performed commercially by TropiQ Health Sciences (Nijmegen, The Netherlands). Test samples were diluted in DMSO and then in RPMI medium (Gibco, 51800043) to achieve a final DMSO concentration of 0.1%. Diluted samples were combined with stage V gametocytes from P. falciparum strain NF54-hsp70-luc and incubated for 24 h. Subsequently, human red blood cells and human serum with the sample were added to achieve a haematocrit of 50%. The blood meal was fed to two-day old Anopheles stephensi mosquitoes that were starved the night prior to the blood meal. […] Mosquito infection was analyzed 8 days post-feeding by luminescence measurements of whole mosquitoes as described previously. For each feeder, luminescence intensity was analyzed in 15–24 mosquitoes per feeder (N = 1, n = 15–24). Luminescence background levels were determined from 15–24 uninfected mosquitoes. Controls: vehicle (0.1% DMSO) in duplicate.
In the case of `OC(c1ccc(Cl)cc1)C1CCN(CCCN2CCC(C(O)c3ccc(Cl)cc3)CC2)CC1` (centres unmarked) [Compound 13], the “SMFA (average # of events) 1 µM” value was 488.21 ± 436.95. `Cc1ccc2nc(-c3ccccc3)c(CSc3cccc[n+]3[O-])n2c1` [Compound 16] was tested, and the “SMFA (average # of events) 1 µM” value was 1226.92 ± 1130.89. `COc1ccccc1Cn1cc2c(-c3ccc(F)cc3)nnc-2c2cc(OC)c(OC)cc21` [Compound 31] was tested, and the “SMFA (average # of events) 1 µM” value was 2637.13 ± 1570.14. For `Clc1ccc(Nc2nc(-c3ccccn3)cs2)nc1` [Compound 39], the “SMFA (average # of events) 1 µM” value was 1612.33 ± 1234.03. In the case of `COc1cc(CNCC2CCNCC2)ccc1OCc1cccc(Cl)c1` [Compound 53], the “SMFA (average # of events) 1 µM” value was 10.04 ± 12.81. With `Cc1ccc(Nc2cc(C)nc(Nc3ccc(NC(=O)c4cc5ccccc5oc4=O)cc3)n2)cc1` [Compound 63] the “SMFA (average # of events) 1 µM” value was 2365.33 ± 1952.29. `COc1ccc(Nc2cc(C)nc(Nc3ccc(NC(=O)c4cc(C)cc(C)c4)cc3)n2)cc1` [Compound 64] was tested, and the “SMFA (average # of events) 1 µM” value was 3707.46 ± 3510.94. With `COc1ccc(NC(=O)Nc2ccc(Nc3nc(C)cc(Nc4ccc(C)cc4)n3)cc2)cc1` [Compound 65] the “SMFA (average # of events) 1 µM” value was 4000.86 ± 3085.37. With `O=C(c1ccc([N+](=O)[O-])o1)N1CCC(Cn2cnc3ccccc32)CC1` [Compound 69] the “SMFA (average # of events) 1 µM” value was 2021.92 ± 1839.86.

Same assay, conditions: 1 µM, 24 h treatment
For `COc1cc(CNCC2CCNCC2)ccc1OCc1cccc(Cl)c1` [Compound 53], the “transmission blocking in SMFA” value was “most active; also recorded: equivalent to that of the positive control MMV0048”.

Same assay, conditions: 10 µM
For `OC(c1ccc(Cl)cc1)C1CCN(CCCN2CCC(C(O)c3ccc(Cl)cc3)CC2)CC1` (centres unmarked) [Compound 13], the “SMFA (average # of events) 10 µM” value was 7.92 ± 1.44. `Cc1ccc2nc(-c3ccccc3)c(CSc3cccc[n+]3[O-])n2c1` [Compound 16] was tested, and the “SMFA (average # of events) 10 µM” value was 9.5 ± 9.34. With `COc1ccccc1Cn1cc2c(-c3ccc(F)cc3)nnc-2c2cc(OC)c(OC)cc21` [Compound 31] the “SMFA (average # of events) 10 µM” value was 1559.87 ± 983.2. For `Clc1ccc(Nc2nc(-c3ccccn3)cs2)nc1` [Compound 39], the “SMFA (average # of events) 10 µM” value was 7.33 ± 2.82. With `COc1cc(CNCC2CCNCC2)ccc1OCc1cccc(Cl)c1` [Compound 53] the “SMFA (average # of events) 10 µM” value was 6.29 ± 1.85. `Cc1ccc(Nc2cc(C)nc(Nc3ccc(NC(=O)c4cc5ccccc5oc4=O)cc3)n2)cc1` [Compound 63] was tested, and the “SMFA (average # of events) 10 µM” value was 6.33 ± 1.79. With `COc1ccc(Nc2cc(C)nc(Nc3ccc(NC(=O)c4cc(C)cc(C)c4)cc3)n2)cc1` [Compound 64] the “SMFA (average # of events) 10 µM” value was 3885.67 ± 4295.41. For `COc1ccc(NC(=O)Nc2ccc(Nc3nc(C)cc(Nc4ccc(C)cc4)n3)cc2)cc1` [Compound 65], the “SMFA (average # of events) 10 µM” value was 5.96 ± 1.99. `O=C(c1ccc([N+](=O)[O-])o1)N1CCC(Cn2cnc3ccccc32)CC1` [Compound 69] was tested, and the “SMFA (average # of events) 10 µM” value was 6.17 ± 1.81.

Same assay, conditions: read-out: inhibition of parasite transmission (SMFA)
For `COc1cc(CNCC2CCNCC2)ccc1OCc1cccc(Cl)c1` [Compound 53], the inhibition at 1 µM was ~100%.

Same assay, conditions: tested at 1 and 10 µM, 24 h treatment
For `OC(c1ccc(Cl)cc1)C1CCN(CCCN2CCC(C(O)c3ccc(Cl)cc3)CC2)CC1` (centres unmarked) [Compound 13], the “transmission blocking activity in SMFA (words, rank)” value (from here on “transmission blocking activity”) was “second most active”. In the case of `Cc1ccc2nc(-c3ccccc3)c(CSc3cccc[n+]3[O-])n2c1` [Compound 16], the “transmission blocking activity” value was “third most active”. `COc1ccccc1Cn1cc2c(-c3ccc(F)cc3)nnc-2c2cc(OC)c(OC)cc21` [Compound 31] was tested, and the “transmission blocking activity” value was “moderate transmission blocker”. For `Clc1ccc(Nc2nc(-c3ccccn3)cs2)nc1` [Compound 39], the “transmission blocking activity” value was “efficiently blocks parasite transmission”.

Each compound was assayed on P. falciparum NF54 hsp86-PpyRE13 gametocytes (assay: P. falciparum gametocyte luminescence assay (PfLuc), line NF54 hsp86-PpyRE13). Conditions: NF54 hsp86-PpyRE13, ratio of asexual stage (pLDH) to gametocyte (PfLuc) IC50.
Type: cell-based, Plasmodium falciparum
Description: as §1, §2, §3
With `Cc1ccc2nc(-c3ccccc3)c(CSc3cccc[n+]3[O-])n2c1` [Compound 16] the “gametocyte specificity / selectivity (gametocytes vs asexual stages)” value was “around 6 fold”. In the case of `O=C(c1ccc([N+](=O)[O-])o1)N1CCC(Cn2cnc3ccccc32)CC1` [Compound 69], the “gametocyte specificity / selectivity (gametocytes vs asexual stages)” value was “around six”.

Same assay, conditions: Plasmodium falciparum, NF54, read-out: Pf Gametocytes NF54 HSP86 (IC50 nM)
For `OC(c1ccc(Cl)cc1)C1CCN(CCCN2CCC(C(O)c3ccc(Cl)cc3)CC2)CC1` (centres unmarked) [Compound 13], the IC50 was 1600 nM. `Cc1ccc2nc(-c3ccccc3)c(CSc3cccc[n+]3[O-])n2c1` [Compound 16] gave an IC50 of 219 nM. `COc1ccccc1Cn1cc2c(-c3ccc(F)cc3)nnc-2c2cc(OC)c(OC)cc21` [Compound 31] was tested, and the IC50 was 496 nM. In the case of `Clc1ccc(Nc2nc(-c3ccccn3)cs2)nc1` [Compound 39], the IC50 was 382 nM. In the case of `COc1cc(CNCC2CCNCC2)ccc1OCc1cccc(Cl)c1` [Compound 53], the IC50 was 1820 nM. Compound `Cc1ccc(Nc2cc(C)nc(Nc3ccc(NC(=O)c4cc5ccccc5oc4=O)cc3)n2)cc1` [Compound 63] has an IC50 of 1870 nM. Compound `COc1ccc(Nc2cc(C)nc(Nc3ccc(NC(=O)c4cc(C)cc(C)c4)cc3)n2)cc1` [Compound 64] has an IC50 of 215 nM. Work on `COc1ccc(NC(=O)Nc2ccc(Nc3nc(C)cc(Nc4ccc(C)cc4)n3)cc2)cc1` [Compound 65] yielded an IC50 of 431 nM. `O=C(c1ccc([N+](=O)[O-])o1)N1CCC(Cn2cnc3ccccc32)CC1` [Compound 69] showed an IC50 of 1500 nM.
